Patent US4591504A, “Human leucocyte pepsin-like enzyme as a therapeutic agent for treating allergic disorders and immune complex diseases” (Mochida Pharmaceutical Co., Ltd., priority 1982, dated 1986)

Experiments:
[1] = test system: human breast cancer cells MX-1; assay: Effect on the growth of cultured human breast cancer cells MX-1; type: cell-based; conditions: 100 μg/ml, 48 hours, read-out: Growth inhibition rate
Experimental: (§1) Human breast cancer cells MX-1 and mouse leukemia cells L1210 were respectively suspended at a cell concentration of 10^5 /ml in Eagle's medium containing 10% calf serum and test substances. The cells were cultured at 37° C. under 5% CO2 for 48 hours. Then the number of viable cells was counted after staining with Tripan Blue. [formula]

[2] = test system: mouse leukemia cells L1210; assay: Effect on the growth of cultured mouse leukemia cells L1210; type: cell-based; conditions: 100 μg/ml, 48 hours, read-out: Growth inhibition rate
Experimental: as §1

leukemia cells P388 = assay: Effect on leukemia cells P388 bearing mice; type: in vivo, mouse (BDF1); conditions: 0.5 mg/kg; control 100 ± 5
Experimental: 10^5 of leukemia cells P388 were transplanted intraperitoneally to a group of 5 BDF1 male mice. The human leucocyte pepsin-like enzyme was injected intravenously into the mice twice a day beginning on the next day until the animals died. The average life span was calculated and expressed as a percentage of control. [formula]

**Q.** Which results are given for CO[C@@]12[C@H](COC(N)=O)C3=C(C(=O)C(C)=C(N)C3=O)N1C[C@@H]1N[C@@H]12 [Mitomycin C]?
**A.** inhibition at 100 µg/mL [1]: 48%; inhibition at 100 µg/mL [2]: 61%; Average life span (percentage of control) (leukemia cells P388): 135 ± 16%
